Experiments:
[1] = molecular target: Trypsin (Homo sapiens) (UniProt P07477+P07478+P35030); experiment: Inhibition of trypsin (unknown origin) at 1 uM; format: protein assay
[2] = Drug uptake in beagle dog liver by LC/MS/MS analysis; format: ADME, tissue-based, Canis lupus familiaris; settings: in vivo
[3] = Drug uptake in beagle dog lung by LC/MS/MS analysis; format: ADME, tissue-based, Canis lupus familiaris; settings: in vivo
[4] = molecular target: Core antigen (Hepatitis B virus) (UniProt Q03732); experiment: Inhibition of hepatitis B virus capsid assembly infected in human HepG2.215 cells assessed as reduction in viral DNA replication measured on day 7 by real time PCR analysis; format: cell-based
[5] = tested on: Mus musculus; experiment: Biotransformation in po dosed mouse assessed as (R)-Ethyl 4-(2-bromo-4-fluorophenyl)-6-(morpholinomethyl)-2-(thiazol-2-yl)-1,4-dihydropyrimidine-5-carboxylate formation; format: ADME, organism-based; settings: in vivo
[6] = tested on: Mus musculus; experiment: Biotransformation in po dosed mouse assessed as (S)-Ethyl 4-(2-bromo-4-fluorophenyl)-6-(morpholinomethyl)-2-(thiazol-2-yl)-1,4-dihydropyrimidine-5-carboxylate formation; format: ADME, organism-based; settings: in vivo
[7] = tested on: Canis familiaris; experiment: Biotransformation in po dosed beagle dog assessed as (R)-Ethyl 4-(2-bromo-4-fluorophenyl)-6-(morpholinomethyl)-2-(thiazol-2-yl)-1,4-dihydropyrimidine-5-carboxylate formation; format: ADME, organism-based, Canis lupus familiaris; settings: in vivo
[8] = tested on: Canis familiaris; experiment: Biotransformation in po dosed beagle dog assessed as (S)-Ethyl 4-(2-bromo-4-fluorophenyl)-6-(morpholinomethyl)-2-(thiazol-2-yl)-1,4-dihydropyrimidine-5-carboxylate formation; format: ADME, organism-based, Canis lupus familiaris; settings: in vivo
[9] = tested on: Canis familiaris; experiment: Cmax in beagle dog at 5 mg/kg, po by LC/MS/MS analysis; format: ADME, organism-based, Canis lupus familiaris; set-up: dose 5 mg/kg, route oral; settings: in vivo
[10] = tested on: Canis familiaris; experiment: Cmax in beagle dog at 15 mg/kg, po by LC/MS/MS analysis; format: ADME, organism-based, Canis lupus familiaris; set-up: dose 15 mg/kg, route oral; settings: in vivo
[11] = tested on: Canis familiaris; experiment: Cmax in beagle dog at 45 mg/kg, po by LC/MS/MS analysis; format: ADME, organism-based, Canis lupus familiaris; set-up: dose 45 mg/kg, route oral; settings: in vivo
[12] = tested on: Canis familiaris; experiment: Cmax in beagle dog at 15 mg/kg, po for 7 days by LC/MS/MS analysis; format: ADME, organism-based, Canis lupus familiaris; set-up: dose 15 mg/kg, route oral; settings: in vivo, 168 h
[13] = AUC (0 to 24 hrs) in beagle dog at 5 mg/kg, iv by LC/MS/MS analysis; format: ADME, organism-based, Canis lupus familiaris; set-up: dose 5 mg/kg, time < 24 hr, route intravenous; settings: in vivo
[14] = AUC (0 to 24 hrs) in beagle dog at 5 mg/kg, po by LC/MS/MS analysis; format: ADME, organism-based, Canis lupus familiaris; set-up: time < 24 hr, dose 5 mg/kg, route oral; settings: in vivo
[15] = AUC (0 to 24 hrs) in beagle dog at 15 mg/kg, po by LC/MS/MS analysis; format: ADME, organism-based, Canis lupus familiaris; set-up: dose 15 mg/kg, time < 24 hr, route oral; settings: in vivo
[16] = AUC (0 to 24 hrs) in beagle dog at 45 mg/kg, po by LC/MS/MS analysis; format: ADME, organism-based, Canis lupus familiaris; set-up: time < 24 hr, dose 45 mg/kg, route oral; settings: in vivo
[17] = AUC (0 to 24 hrs) in beagle dog at 15 mg/kg, po for 7 days by LC/MS/MS analysis; format: ADME, organism-based, Canis lupus familiaris; set-up: time < 24 hr, dose 15 mg/kg, route oral; settings: in vivo
[18] = Half life in beagle dog at 5 mg/kg, iv by LC/MS/MS analysis; settings: in vivo
[19] = Half life in beagle dog at 5 mg/kg, po by LC/MS/MS analysis; settings: in vivo
[20] = Clearance in beagle dog at 5 mg/kg, iv by LC/MS/MS analysis; format: ADME, organism-based, Canis lupus familiaris; settings: in vivo
[21] = Volume of distribution at steady state in beagle dog at 5 mg/kg, iv by LC/MS/MS analysis; format: ADME, organism-based, Canis lupus familiaris; settings: in vivo, read-out: Vdss
[22] = Drug uptake in beagle dog heart by LC/MS/MS analysis; format: ADME, tissue-based, Canis lupus familiaris; settings: in vivo
[23] = Drug uptake in beagle dog brain by LC/MS/MS analysis; format: ADME, tissue-based, Canis lupus familiaris; settings: in vivo
[24] = molecular target: 72 kDa type IV collagenase (Homo sapiens) (UniProt P08253); experiment: Inhibition of MMP2 (unknown origin) at 1 uM
[25] = species: Homo sapiens; experiment: Inhibition of proteasome (unknown origin) at 1 uM
[26] = molecular target: Disintegrin and metalloproteinase domain-containing protein 17 (Homo sapiens) (UniProt P78536); experiment: Inhibition of TACE (unknown origin) at 1 uM
[27] = molecular target: Low molecular weight phosphotyrosine protein phosphatase (Homo sapiens) (UniProt P24666); experiment: Inhibition of ACP1 (unknown origin) at 1 uM
[28] = molecular target: Bile acid receptor (Homo sapiens) (UniProt Q96RI1); experiment: Agonist activity at FXR (unknown origin) at 1 uM
[29] = molecular target: Bile acid receptor (Homo sapiens) (UniProt Q96RI1); experiment: Antagonist activity at FXR (unknown origin) at 1 uM
[30] = molecular target: Oxysterols receptor LXR-beta (Homo sapiens) (UniProt P55055); experiment: Agonist activity at LXRbeta (unknown origin) at 1 uM
[31] = molecular target: Oxysterols receptor LXR-beta (Homo sapiens) (UniProt P55055); experiment: Antagonist activity at LXRbeta (unknown origin) at 1 uM
[32] = molecular target: Sodium/potassium-transporting ATPase (Homo sapiens) (UniProt P05023+P14415+P05026+P50993+P54709+P13637+Q13733+P54710); experiment: Inhibition of Sodium/potassium-transporting ATPase (unknown origin) at 1 uM; format: protein-complex assay
[33] = molecular target: Prostaglandin G/H synthase 1 (Homo sapiens) (UniProt P23219); experiment: Inhibition of COX-1 (unknown origin) at 1 uM
[34] = molecular target: NAD-dependent protein deacetylase sirtuin-1 (Homo sapiens) (UniProt Q96EB6); experiment: Inhibition of SIRT1 (unknown origin) at 1 uM
[35] = species: Homo sapiens; experiment: Inhibition of lipase (unknown origin) at 1 uM
[36] = molecular target: Nitric oxide synthase, inducible (Homo sapiens) (UniProt P35228); experiment: Inhibition of iNOS (unknown origin) at 1 uM
[37] = species: Homo sapiens; experiment: Inhibition of neural phospholipase (unknown origin) at 1 uM
[38] = molecular target: RAC-alpha serine/threonine-protein kinase (Homo sapiens) (UniProt P31749); experiment: Inhibition of AKT1 (unknown origin) at 1 uM
[39] = molecular target: Calcium/calmodulin-dependent protein kinase type II subunit delta (Homo sapiens) (UniProt Q13557); experiment: Inhibition of CAMK2D (unknown origin) at 1 uM
[40] = molecular target: Death-associated protein kinase 1 (Homo sapiens) (UniProt P53355); experiment: Inhibition of DAPK1 (unknown origin) at 1 uM
[41] = molecular target: Mitogen-activated protein kinase 3 (Homo sapiens) (UniProt P27361); experiment: Inhibition of ERK1 (unknown origin) at 1 uM
[42] = molecular target: Protein kinase C alpha type (Homo sapiens) (UniProt P17252); experiment: Inhibition of PKCalpha (unknown origin) at 1 uM
[43] = molecular target: Tyrosine-protein kinase ABL1 (Homo sapiens) (UniProt P00519); experiment: Inhibition of ABL1 (unknown origin) at 1 uM
[44] = molecular target: Epidermal growth factor receptor (Homo sapiens) (UniProt P00533); experiment: Inhibition of EGFR (unknown origin) at 1 uM
[45] = molecular target: Receptor-type tyrosine-protein kinase FLT3 (Homo sapiens) (UniProt P36888); experiment: Inhibition of FLT3 (unknown origin) at 1 uM
[46] = molecular target: Tyrosine-protein kinase JAK2 (Homo sapiens) (UniProt O60674); experiment: Inhibition of JAK2 (unknown origin) at 1 uM
[47] = molecular target: Proto-oncogene tyrosine-protein kinase Src (Homo sapiens) (UniProt P12931); experiment: Inhibition of SRC (unknown origin) at 1 uM
[48] = molecular target: Tyrosine-protein kinase ZAP-70 (Homo sapiens) (UniProt P43403); experiment: Inhibition of ZA70 (unknown origin) at 1 uM
[49] = molecular target: Adenosine receptor A1 (Homo sapiens) (UniProt P30542); experiment: Inhibition of adenosine receptor A1 (unknown origin) at 1 uM
[50] = molecular target: Interleukin-8 receptors, CXCR1/CXCR2 (Homo sapiens) (UniProt P25025+P25024); experiment: Inhibition of CXCR1/2 (unknown origin) at 1 uM; format: protein assay
[51] = molecular target: D(1A) dopamine receptor (Homo sapiens) (UniProt P21728); experiment: Inhibition of dopamine D1 receptor (unknown origin) at 1 uM
[52] = molecular target: Platelet-activating factor receptor (Homo sapiens) (UniProt P25105); experiment: Inhibition of platelet-activating factor receptor (unknown origin) at 1 uM
[53] = molecular target: Sodium-dependent serotonin transporter (Homo sapiens) (UniProt P31645); experiment: Inhibition of 5-Serotonin transporter (unknown origin) at 1 uM
[54] = species: Homo sapiens; experiment: Inhibition of calcium channel (unknown origin) at 1 uM
[55] = Toxicity in beagle dog administered via oral gavage for 28 days; format: organism-based, Canis lupus familiaris; settings: in vivo
[56] = in vivo; settings: beagle, dog, po, 15 mg/kg
Description: Half life in beagle dog at 15 mg/kg, po by LC/MS/MS analysis

[57] = in vivo; settings: beagle, dog, po, 45 mg/kg
Description: Half life in beagle dog at 45 mg/kg, po by LC/MS/MS analysis

[58] = in vivo; settings: beagle, dog, po, 15 mg/kg; remark: listed apart in the source
Description: Half life in beagle dog at 15 mg/kg, po for 7 days by LC/MS/MS analysis

[59] = in vivo; settings: beagle, dog, po, 5 mg/kg

Sequence of Core antigen (Hepatitis B virus) (Q03732 as listed by the source): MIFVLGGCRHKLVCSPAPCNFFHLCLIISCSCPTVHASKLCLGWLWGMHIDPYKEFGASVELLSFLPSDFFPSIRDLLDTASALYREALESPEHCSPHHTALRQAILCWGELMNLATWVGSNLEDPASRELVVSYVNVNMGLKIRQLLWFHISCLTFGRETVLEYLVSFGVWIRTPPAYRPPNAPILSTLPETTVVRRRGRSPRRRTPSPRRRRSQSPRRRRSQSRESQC
Sequence of Bile acid receptor (Homo sapiens) (Q96RI1 whole entry): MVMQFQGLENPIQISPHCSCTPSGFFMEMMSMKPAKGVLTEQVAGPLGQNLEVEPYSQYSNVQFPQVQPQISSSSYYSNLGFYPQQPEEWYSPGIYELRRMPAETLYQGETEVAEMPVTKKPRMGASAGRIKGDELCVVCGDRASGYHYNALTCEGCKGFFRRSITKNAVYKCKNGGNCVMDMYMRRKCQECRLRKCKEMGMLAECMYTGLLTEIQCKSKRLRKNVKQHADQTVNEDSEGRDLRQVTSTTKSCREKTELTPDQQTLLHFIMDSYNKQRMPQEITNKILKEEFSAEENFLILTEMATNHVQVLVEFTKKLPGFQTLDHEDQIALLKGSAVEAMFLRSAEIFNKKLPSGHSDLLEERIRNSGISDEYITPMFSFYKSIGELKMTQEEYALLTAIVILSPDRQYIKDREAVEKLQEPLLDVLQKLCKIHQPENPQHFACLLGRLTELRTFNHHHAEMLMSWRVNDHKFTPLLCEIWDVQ
Sequence of Oxysterols receptor LXR-beta (Homo sapiens) (P55055 whole entry): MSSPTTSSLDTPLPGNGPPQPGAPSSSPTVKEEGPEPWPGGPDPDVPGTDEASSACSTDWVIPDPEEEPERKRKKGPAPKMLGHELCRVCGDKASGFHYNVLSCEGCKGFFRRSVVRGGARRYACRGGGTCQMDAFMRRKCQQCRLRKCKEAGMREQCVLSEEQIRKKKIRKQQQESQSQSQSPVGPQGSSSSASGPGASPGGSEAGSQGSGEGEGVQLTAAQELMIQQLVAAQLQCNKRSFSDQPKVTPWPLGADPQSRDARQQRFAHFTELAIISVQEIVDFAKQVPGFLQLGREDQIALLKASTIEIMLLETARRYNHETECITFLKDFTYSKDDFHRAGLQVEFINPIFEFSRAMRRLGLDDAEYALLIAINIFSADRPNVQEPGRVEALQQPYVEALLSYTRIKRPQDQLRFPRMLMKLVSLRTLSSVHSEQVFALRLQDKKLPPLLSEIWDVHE
Sequence of Disintegrin and metalloproteinase domain-containing protein 17 (Homo sapiens) (P78536 whole entry, the tested form may be a part): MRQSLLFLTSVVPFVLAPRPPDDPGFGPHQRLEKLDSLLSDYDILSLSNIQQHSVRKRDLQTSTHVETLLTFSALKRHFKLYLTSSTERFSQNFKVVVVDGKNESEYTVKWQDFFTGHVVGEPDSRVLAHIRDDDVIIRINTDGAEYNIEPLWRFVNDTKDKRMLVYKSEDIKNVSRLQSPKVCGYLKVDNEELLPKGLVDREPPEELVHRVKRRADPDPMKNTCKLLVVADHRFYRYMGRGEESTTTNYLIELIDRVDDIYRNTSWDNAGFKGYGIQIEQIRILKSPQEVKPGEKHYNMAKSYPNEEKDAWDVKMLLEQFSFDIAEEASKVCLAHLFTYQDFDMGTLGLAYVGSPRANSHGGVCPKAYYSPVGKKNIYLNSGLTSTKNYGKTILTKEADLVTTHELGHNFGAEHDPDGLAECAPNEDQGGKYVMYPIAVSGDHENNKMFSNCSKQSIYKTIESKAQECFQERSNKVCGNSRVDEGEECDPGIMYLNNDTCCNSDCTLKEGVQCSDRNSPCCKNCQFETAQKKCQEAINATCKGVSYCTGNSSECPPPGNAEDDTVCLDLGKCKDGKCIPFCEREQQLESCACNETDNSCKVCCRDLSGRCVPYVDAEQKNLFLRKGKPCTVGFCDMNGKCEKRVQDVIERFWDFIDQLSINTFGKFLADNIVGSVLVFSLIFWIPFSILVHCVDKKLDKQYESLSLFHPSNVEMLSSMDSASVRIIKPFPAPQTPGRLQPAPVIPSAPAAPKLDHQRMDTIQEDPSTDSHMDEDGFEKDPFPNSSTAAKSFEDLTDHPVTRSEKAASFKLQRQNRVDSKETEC
Sequence of 72 kDa type IV collagenase (Homo sapiens) (P08253 110-660 limits assumed): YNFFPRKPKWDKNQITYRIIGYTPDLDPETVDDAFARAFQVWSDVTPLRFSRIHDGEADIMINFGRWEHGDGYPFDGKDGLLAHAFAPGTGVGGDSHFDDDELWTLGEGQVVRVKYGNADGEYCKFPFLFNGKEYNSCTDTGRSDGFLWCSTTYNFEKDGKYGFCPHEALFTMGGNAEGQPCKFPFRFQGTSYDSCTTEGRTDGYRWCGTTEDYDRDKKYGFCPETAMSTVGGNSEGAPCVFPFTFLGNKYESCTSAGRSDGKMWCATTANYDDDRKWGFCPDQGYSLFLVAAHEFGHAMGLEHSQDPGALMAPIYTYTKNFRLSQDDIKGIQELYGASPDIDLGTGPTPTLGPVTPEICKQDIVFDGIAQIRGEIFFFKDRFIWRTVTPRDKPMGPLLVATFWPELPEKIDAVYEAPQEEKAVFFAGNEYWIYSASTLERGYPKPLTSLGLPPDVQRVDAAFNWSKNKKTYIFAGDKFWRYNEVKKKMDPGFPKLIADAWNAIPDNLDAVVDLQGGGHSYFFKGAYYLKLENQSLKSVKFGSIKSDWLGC
Sequence of Sodium-dependent serotonin transporter (Homo sapiens) (P31645 whole entry, looked up): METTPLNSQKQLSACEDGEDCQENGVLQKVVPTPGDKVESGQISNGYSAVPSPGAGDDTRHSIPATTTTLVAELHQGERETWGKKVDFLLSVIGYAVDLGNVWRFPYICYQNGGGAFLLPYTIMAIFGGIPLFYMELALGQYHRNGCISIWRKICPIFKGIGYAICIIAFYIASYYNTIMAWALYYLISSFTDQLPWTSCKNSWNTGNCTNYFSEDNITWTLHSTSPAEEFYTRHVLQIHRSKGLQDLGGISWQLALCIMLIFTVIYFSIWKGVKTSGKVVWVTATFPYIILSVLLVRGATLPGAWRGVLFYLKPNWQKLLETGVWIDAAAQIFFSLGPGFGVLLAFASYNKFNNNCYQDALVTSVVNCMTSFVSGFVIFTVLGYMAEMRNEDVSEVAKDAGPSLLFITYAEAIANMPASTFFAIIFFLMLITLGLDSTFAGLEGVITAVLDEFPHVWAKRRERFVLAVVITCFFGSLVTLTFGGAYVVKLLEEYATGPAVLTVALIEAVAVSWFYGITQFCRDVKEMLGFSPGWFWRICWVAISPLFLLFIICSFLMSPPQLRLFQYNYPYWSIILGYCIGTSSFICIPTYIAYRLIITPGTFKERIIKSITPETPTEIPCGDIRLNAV
Sequence of D(1A) dopamine receptor (Homo sapiens) (P21728 whole entry): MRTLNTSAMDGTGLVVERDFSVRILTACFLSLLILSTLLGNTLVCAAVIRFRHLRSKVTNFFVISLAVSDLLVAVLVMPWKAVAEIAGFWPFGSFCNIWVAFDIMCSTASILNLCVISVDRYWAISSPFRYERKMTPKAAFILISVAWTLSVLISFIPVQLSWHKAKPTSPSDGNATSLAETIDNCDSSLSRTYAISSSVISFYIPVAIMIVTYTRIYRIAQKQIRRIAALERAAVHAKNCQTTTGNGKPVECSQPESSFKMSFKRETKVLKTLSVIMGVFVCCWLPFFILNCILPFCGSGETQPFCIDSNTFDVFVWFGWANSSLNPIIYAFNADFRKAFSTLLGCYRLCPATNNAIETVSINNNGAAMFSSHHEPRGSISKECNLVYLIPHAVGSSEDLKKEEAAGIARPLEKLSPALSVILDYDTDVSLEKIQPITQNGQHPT
Sequence of Prostaglandin G/H synthase 1 (Homo sapiens) (P23219 whole entry): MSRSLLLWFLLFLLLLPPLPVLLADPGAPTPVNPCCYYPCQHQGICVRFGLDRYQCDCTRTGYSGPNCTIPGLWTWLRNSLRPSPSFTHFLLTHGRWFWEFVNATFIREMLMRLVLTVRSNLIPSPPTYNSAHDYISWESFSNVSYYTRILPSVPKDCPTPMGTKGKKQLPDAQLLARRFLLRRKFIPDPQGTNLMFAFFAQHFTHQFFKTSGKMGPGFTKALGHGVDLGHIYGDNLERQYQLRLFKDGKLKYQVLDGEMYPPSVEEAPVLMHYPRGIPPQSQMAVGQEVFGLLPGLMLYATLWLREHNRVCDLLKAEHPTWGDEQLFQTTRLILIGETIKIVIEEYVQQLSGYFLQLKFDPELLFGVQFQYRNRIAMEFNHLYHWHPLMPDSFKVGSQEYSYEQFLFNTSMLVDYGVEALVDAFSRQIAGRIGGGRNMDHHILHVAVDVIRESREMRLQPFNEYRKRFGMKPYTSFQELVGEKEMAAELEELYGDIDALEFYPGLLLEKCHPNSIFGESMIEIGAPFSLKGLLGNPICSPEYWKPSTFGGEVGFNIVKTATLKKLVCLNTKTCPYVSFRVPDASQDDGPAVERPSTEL
Sequence of Low molecular weight phosphotyrosine protein phosphatase (Homo sapiens) (P24666 whole entry): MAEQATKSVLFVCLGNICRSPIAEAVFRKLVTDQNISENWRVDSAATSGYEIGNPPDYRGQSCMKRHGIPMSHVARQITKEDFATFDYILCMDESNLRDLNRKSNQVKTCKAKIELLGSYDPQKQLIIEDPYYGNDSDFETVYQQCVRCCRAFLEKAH
Sequence of Adenosine receptor A1 (Homo sapiens) (P30542 whole entry): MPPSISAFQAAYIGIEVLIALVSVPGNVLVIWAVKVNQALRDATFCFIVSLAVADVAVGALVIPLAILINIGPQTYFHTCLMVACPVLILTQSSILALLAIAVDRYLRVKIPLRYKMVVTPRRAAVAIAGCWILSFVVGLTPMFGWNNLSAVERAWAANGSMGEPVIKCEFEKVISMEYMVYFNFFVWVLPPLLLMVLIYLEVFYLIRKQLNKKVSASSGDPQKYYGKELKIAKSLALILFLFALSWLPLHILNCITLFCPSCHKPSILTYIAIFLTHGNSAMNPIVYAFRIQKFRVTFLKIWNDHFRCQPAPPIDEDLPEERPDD

## CCOC(=O)C1=C(CN2CCOCC2)NC(c2nccs2)=NC1c1ccc(F)cc1Br (stereo not given)
[1]
  inhibition: 4%
[2]
  Drug uptake: Active
[3]
  Drug uptake: Not Active
[4]
  EC90: 6 nM
[5]
  Drug metabolism: Metabolite_Notdetected
[6]
  Drug metabolism: Metabolite_Notdetected
[7]
  Drug metabolism: Metabolite_Notdetected
[8]
  Drug metabolism: Metabolite_Notdetected
[9]
  Cmax: 136 ng/mL
[10]
  Cmax: 698 ng/mL
[11]
  Cmax: 1180 ng/mL
[12]
  Cmax: 524 ng/mL
[13]
  AUC(0-t) at 24 h: 4350 ng·h/mL
[14]
  AUC(0-t) at 24 h: 695 ng·h/mL
[15]
  AUC(0-t) at 24 h: 2760 ng·h/mL
[16]
  AUC(0-t) at 24 h: 8470 ng·h/mL
[17]
  AUC at 24 h: 2830 ng·h/mL
[18]
  half-life: 9.85 h
[19]
  half-life: 6.91 h
[20]
  clearance: 17.9 mL/min/kg
[21]
  Vd: 6.86 L/kg
[22]
  Drug uptake: Not Active
[23]
  Drug uptake: Not Active
[24]
  inhibition: -3%
[25]
  inhibition: 2%
[26]
  inhibition: 2%
[27]
  inhibition: -4%
[28]
  Activity: 2%
[29]
  inhibition: 4%
[30]
  Activity: 5%
[31]
  inhibition: -7%
[32]
  inhibition: 4%
[33]
  inhibition: -10%
[34]
  inhibition: 7%
[35]
  inhibition: 4%
[36]
  inhibition: 7%
[37]
  inhibition: 9%
[38]
  inhibition: -3%
[39]
  inhibition: 11%
[40]
  inhibition: 3%
[41]
  inhibition: 7%
[42]
  inhibition: 1%
[43]
  inhibition: 2%
[44]
  inhibition: 0%
[45]
  inhibition: 4%
[46]
  inhibition: 25%
[47]
  inhibition: -3%
[48]
  inhibition: 9%
[49]
  inhibition: 1%
[50]
  inhibition: 8%
[51]
  inhibition: 7%
[52]
  inhibition: 10%
[53]
  inhibition: -1%
[54]
  inhibition: -6%
[55]
  NOAEL at 672 h: 10 mg/kg
[56]
  half-life: 7.32 h
[57]
  half-life: 6.29 h
[58]
  half-life at 168 h: 9.47 h
[59]
  bioavailability: 15.6%

## COC(=O)C1=C(C)NC(c2ncc(F)cc2F)=N[C@H]1c1ccc(F)cc1Cl
[4]
  EC90: 102 nM

Source: ChEMBL document CHEMBL4177524, “Discovery of hepatitis B virus capsid assembly inhibitors leading to a heteroaryldihydropyrimidine based clinical candidate (GLS4)” (Bioorg Med Chem, 2017)
